We go through six compounds from patent US20090258870A1, “NOVEL ANSAMITOCIN DERIVATIVES” (priority 2008, published 2009).

Values after ≈ are worked out from the molar mass of the structure shown.

One experiment relates to KB-3-1. Briefly: Growth inhibition of KB-3-1 cells, MTT assay. Type of experiment: cell-based, human. Particulars: for Antiproliferative activity IC50: KB-3-1, cervix carcinoma, 5 days, MTT. How it is done: (§1) For the detailed evaluation of their biological profile as anti-cancer agents, cultured human tumor cell lines were treated with the new ansamitocin derivatives. In particular, the 19-fluoro-20-demethoxyansamitocin P3 (F-A), 19-chloro-20-demethoxyansamitocin P3 (Cl-A), 19-bromo-20-demethoxyansamitocin P3 (Br-A), and the 20-demethoxy-19-vinylansamitocin P3 (VI) were tested for their inhibitory effect on cell growth of different cell lines, namely KB-3-1, U-937, PC-3, SK-OV-3, A-498, A-431, and A-549, in comparison to natural biosynthesis product Ansamitocin P-3 (AP-3). Growth inhibition was measured in microtiter plates. 60 μl of serial dilutions of the test compounds were added to aliquots of 120 μl of the suspended cells (50000/ml). After 5 days the growth was determined using a MTT assay, except for U-937, where the WST-1 assay from Roche was employed.
Background: Tetrazolium dyes change colour on reduction, which living cells bring about.

The subject of another experiment is SK-OV-3. In words: Growth inhibition of SK-OV-3 cells, MTT assay. In kind it is cell-based, human. Particulars: for Antiproliferative activity IC50: SK-OV-3, ovarian carcinoma, 5 days, MTT. How it is done:
as §1

The test system of another experiment is PC-3. Briefly: Growth inhibition of PC-3 cells, MTT assay. Type of experiment: cell-based, human. To be noted: for Antiproliferative activity IC50: PC-3, prostate carcinoma, 5 days, MTT. How it is done: as §1
The next experiment deals with A-498. In words: Growth inhibition of A-498 cells, MTT assay. Type of experiment: cell-based, human. Particulars: for Antiproliferative activity IC50: A-498, kidney carcinoma, 5 days, MTT. Here is the method: as §1
The next experiment has as its system A-431. Briefly: Growth inhibition of A-431 cells, MTT assay. Type of experiment: cell-based, human. To be noted: for Antiproliferative activity IC50: A-431, epidermoid carcinoma, 5 days, MTT. Here is the method:
as §1

A further experiment relates to U-937. In words: Growth inhibition of U-937 cells, WST-1 assay. In kind it is cell-based, human. Particulars: for Antiproliferative activity IC50: U-937, lymphoma, 5 days, WST-1. How it is done:
as §1

Another experiment concerns A-549. Briefly: Growth inhibition of A-549 cells, MTT assay. Type of experiment: cell-based, human. To be noted: for Antiproliferative activity IC50: A-549, lung carcinoma, 5 days, MTT. How it is done:
as §1

Experiment [1] relates to cultured human tumor cell lines. In words: Antiproliferative activity on cultured human tumor cell lines (panel, general statements). In kind it is cell-based. To be noted: in general, across the cell lines tested. How it is done:
as §1

“19-chloro-20-demethoxyansamitocin P3 [Cl-A]”: the “Antiproliferative activity IC50” value with KB-3-1 worked out at 0.35 ng/mL; in the experiment with SK-OV-3, 0.1 ng/mL; in the experiment on PC-3 it was 0.12 ng/mL; in the experiment on A-498, 3 ng/mL; with A-431, 0.15 ng/mL; in the experiment with U-937, 0.035 ng/mL. Moreover, the “Antiproliferative activity IC50” value with A-549 stood at 0.4 ng/mL.

Consider “19-fluoro-20-demethoxyansamitocin P3 [F-A]”, for which the “Antiproliferative activity IC50” value was 0.18 ng/mL in the experiment with KB-3-1; 0.035 ng/mL in the experiment with SK-OV-3; 0.035 ng/mL in the experiment on PC-3; 2 ng/mL in the experiment with A-498; 0.04 ng/mL in the experiment with A-431; 0.01 ng/mL with U-937. Further, the “Antiproliferative activity IC50” value in the experiment on A-549 is given as 0.11 ng/mL. In addition, in experiment [1], the “relative activity among the compounds tested” value was “most active”.

For the compound `C=Cc1ccc2cc1N(C)C(=O)CC(OC(=O)C(C)C)C1(C)OC1C(C)C1CC(O)(NC(=O)O1)C(OC)C=CC=C(C)C2` (stereo not shown) [20-demethoxy-19-vinylansamitocin P3], in experiment [1], the “relative activity among the compounds tested” value was “most active”.

With `COc1cc2cc(c1Cl)N(C)C(=O)C[C@H](OC(=O)C(C)C)[C@]1(C)O[C@@H]1[C@H](C)[C@@H]1C[C@@](O)(NC(=O)O1)[C@H](OC)/C=C/C=C(\C)C2` [AP-3, Ansamitocin P-3, reference compound], the “Antiproliferative activity IC50” value was 0.11 ng/mL in the experiment on KB-3-1; 0.03 ng/mL with SK-OV-3; 0.035 ng/mL with PC-3; 1.1 ng/mL in the experiment on A-498; 0.05 ng/mL in the experiment with A-431; 0.0035 ng/mL in the experiment on U-937. Also, the “Antiproliferative activity IC50” value in the experiment with A-549 is given as 0.1 ng/mL.

For `CO[C@@H]1/C=C/C=C(\C)Cc2ccc(Br)c(c2)N(C)C(=O)C[C@H](OC(=O)C(C)C)[C@]2(C)O[C@H]2[C@H](C)[C@@H]2C[C@@]1(O)NC(=O)O2` [Br-A, 19-bromo-20-demethoxyansamitocin P3], the “Antiproliferative activity IC50” value came out at 0.3 ng/mL in the experiment on KB-3-1; 0.05 ng/mL with SK-OV-3; 0.1 ng/mL in the experiment with PC-3; 4 ng/mL with A-498; 0.1 ng/mL with A-431; 0.03 ng/mL with U-937. Also, in the experiment on A-549, the “Antiproliferative activity IC50” value came out at 0.3 ng/mL.

Regarding `C=Cc1ccc2cc1N(C)C(=O)C[C@H](OC(=O)C(C)C)[C@]1(C)O[C@H]1[C@H](C)[C@@H]1C[C@@](O)(NC(=O)O1)[C@H](OC)/C=C/C=C(\C)C2` [VI, 20-demethoxy-19-vinylansamitocin P3], the IC50 (as a rule, the point on the concentration scale where inhibition reaches its midpoint) with KB-3-1 (Homo sapiens, KB 3-1, 120 h, read-out: Antiproliferative activity IC50) is 0.4 ng/mL (≈ 0.67 nM); with SK-OV-3 (Homo sapiens, SK-OV-3, 120 h, read-out: Antiproliferative activity IC50), 0.04 ng/mL (≈ 0.067 nM); with PC-3 (Homo sapiens, PC-3, 120 h, read-out: Antiproliferative activity IC50), 0.1 ng/mL (≈ 0.168 nM); in the experiment with A-498 (Homo sapiens, A498, 120 h, read-out: Antiproliferative activity IC50), 2 ng/mL (≈ 3.35 nM); in the experiment with A-431 (Homo sapiens, A-431, 120 h, read-out: Antiproliferative activity IC50), 0.04 ng/mL (≈ 0.067 nM); with U-937 (Homo sapiens, U-937, 120 h, read-out: Antiproliferative activity IC50), 0.05 ng/mL (≈ 0.0838 nM). In addition, in the experiment with A-549 (Homo sapiens, A549, 120 h, read-out: Antiproliferative activity IC50), the IC50 is 0.14 ng/mL (≈ 0.235 nM).
